Test [1] deals with VENTURIA INAEQUALS (APPLE). Put plainly: foliar fungal disease control test (Table III). The format is in vivo, Venturia inaequalis. Particulars: 100 ppm foliar spray plus root drench ca. 40 ppm a.i./dry soil; 1-2 days before inoculation. As to the method:
(§1) The compounds were tested against a variety of foliar fungal diseases of plants. The technique employed was as follows.
(§2) The plants were grown in John Innes Potting Compost (No 1 or 2) in 4 cm diameter minipots. The test compounds were formulated either by bead milling with aqueous Dispersol T or as a solution in acetone or acetone/ethanol which was diluted to the required concentration immediately before use. For the foliage diseases, the formulations (100 ppm active ingredient) were sprayed on to the foliage and applied to the roots of the plants in the soil. The sprays were applied to maximum retention and the root drenches to a final concentration equivalent to approximately 40 ppm a.i./dry soil. Tween 20, to give a final concentration of 0.05%, was added when the sprays were applied to cereals.
(§3) For most of the tests the compound was applied to the soil (roots) and to the foliage (by spraying) one or two days before the plant was inoculated with the disease. An exception was the test on Erysiphe graminis in which the plants were inoculated 24 hours before treatment. Foliar pathogens were applied by spray as spore suspensions onto the leaves of test plants. After inoculation, the plants were put into an appropriate environment to allow infection to proceed and then incubated until the disease was ready for assessment. The period between inoculation and assessment varied from four to fourteen days according to the disease and environment.
(§4) The disease control was recorded by the following grading: […]

In test [2] the test system is PH[…] (TOMATO). The format is in vivo, Phytophthora infestans. Particulars: 100 ppm foliar spray plus root drench ca. 40 ppm a.i./dry soil; 1-2 days before inoculation.
Test [3] deals with […] (VINE). Put plainly: foliar fungal disease control test (Table III). The class given is in vivo, Plasmopara viticola. Particulars: 100 ppm foliar spray plus root drench ca. 40 ppm a.i./dry soil; 1-2 days before inoculation. As to the method:
as §1, §2, §3, §4

Test [4] has as its system PUCCINIA RECONDITA (WHEAT). Put plainly: foliar fungal disease control test (Table III). The note with it: 100 ppm foliar spray plus root drench ca. 40 ppm a.i./dry soil; 1-2 days before inoculation. The format is in vivo. The protocol: as §1, §2, §3, §4
The test system of test [5] is ERYSIPHE GRAMINIS (BARLEY). Put plainly: foliar fungal disease control test (Table III). Particulars: 100 ppm foliar spray plus root drench ca. 40 ppm a.i./dry soil; inoculated 24 hours before treatment. The class given is in vivo. The protocol:
as §1, §2, §3, §4

Test [6] concerns CERCOSPORA ARACHIDICOLA (PEANUT). Put plainly: foliar fungal disease control test (Table III). The class given is in vivo. The note with it: 100 ppm foliar spray plus root drench ca. 40 ppm a.i./dry soil; 1-2 days before inoculation. The protocol:
as §1, §2, §3, §4

For test [7], the system named is […] (RICE). The format is in vivo, Pyricularia oryzae. The note with it: 100 ppm foliar spray plus root drench ca. 40 ppm a.i./dry soil; 1-2 days before inoculation.

`CO/C=C(/C(=O)OC)c1cccnc1Oc1cc(Cl)cc(Cl)c1` [Compound 60]: the “disease control grading, VENTURIA INAEQUALS (APPLE)” value (shortened to “disease control grading … (APPLE)”) in test [1] is listed as 4. Also, the “disease control grading, PH[…] (TOMATO)” value in test [2] is listed as 4. Besides, the “disease control grading, […] (VINE)” value in test [3] was 4. Further, the “disease control grading, PUCCINIA RECONDITA (WHEAT)” value (“disease control grading … (WHEAT)” below) in test [4] worked out at 4. For the same molecule, in test [5], the “disease control grading, ERYSIPHE GRAMINIS (BARLEY)” value (from here on “disease control grading … (BARLEY)”) was 4. Moreover, the “disease control grading, CERCOSPORA ARACHIDICOLA (PEANUT)” value (shortened to “disease control grading … (PEANUT)”) in test [6] amounted to 4. For the same molecule, the “disease control grading, […] (RICE)” value in test [7] is 4.

In the case of `CO/C=C(/C(=O)OC)c1cccnc1Oc1ccc(F)cc1F` [Compound 87], the “disease control grading … (APPLE)” value in test [1] was determined as 4. Moreover, the “disease control grading, PH[…] (TOMATO)” value in test [2] was 0 (60-100% of disease on untreated plants). Moreover, the “disease control grading, […] (VINE)” value in test [3] was 0 (60-100% of disease on untreated plants). Also, the “disease control grading … (WHEAT)” value in test [4] is recorded as 3 (trace-5% of disease on untreated plants). In addition, the “disease control grading … (BARLEY)” value in test [5] is 4. Moreover, the “disease control grading … (PEANUT)” value in test [6] is recorded as 4. In addition, in test [7], the “disease control grading, […] (RICE)” value came to 4.

In the case of `CO/C=C(/C(=O)OC)c1cccnc1Oc1cccc(C)c1` [Compound 58], in test [1], the “disease control grading … (APPLE)” value turned out to be 4. Further, the “disease control grading, PH[…] (TOMATO)” value in test [2] is 3 (trace-5% of disease on untreated plants). The “disease control grading, […] (VINE)” value in test [3] turned out to be 4. Also, the “disease control grading … (WHEAT)” value in test [4] amounted to 4. For the same molecule, the “disease control grading … (BARLEY)” value in test [5] is given as 4. In test [6], the “disease control grading … (PEANUT)” value worked out at 4. For the same molecule, the “disease control grading, […] (RICE)” value in test [7] was 4.

Consider `CO/C=C(/C(=O)OC)c1cccnc1Oc1ccc(Cl)cc1` [Compound 16], for which, in test [1], the “disease control grading … (APPLE)” value is 4. In addition, the “disease control grading, PH[…] (TOMATO)” value in test [2] is 3 (trace-5% of disease on untreated plants). In test [3], the “disease control grading, […] (VINE)” value amounted to 4. Besides, in test [4], the “disease control grading … (WHEAT)” value is recorded as 4. For the same molecule, the “disease control grading … (BARLEY)” value in test [5] is listed as 4. Moreover, the “disease control grading … (PEANUT)” value in test [6] came out at 4. In addition, the “disease control grading, […] (RICE)” value in test [7] is listed as 4.

Consider `CO/C=C(/C(=O)OC)c1cccnc1Oc1ccc(Br)cc1` [Compound 18], for which the “disease control grading … (APPLE)” value in test [1] was 4. In addition, the “disease control grading, PH[…] (TOMATO)” value in test [2] is 0 (60-100% of disease on untreated plants). In addition, in test [3], the “disease control grading, […] (VINE)” value is 4. Also, in test [4], the “disease control grading … (WHEAT)” value is 1 (26-59% of disease on untreated plants). In test [5], the “disease control grading … (BARLEY)” value was 4. The “disease control grading … (PEANUT)” value in test [6] turned out to be 4. Besides, the “disease control grading, […] (RICE)” value in test [7] was 0 (60-100% of disease on untreated plants).

Take `CO/C=C(/C(=O)OC)c1cccnc1Oc1ccc(OC)cc1` [Compound 20]: the “disease control grading … (APPLE)” value in test [1] is recorded as 4. For the same molecule, in test [2], the “disease control grading, PH[…] (TOMATO)” value was 0 (60-100% of disease on untreated plants). Also, the “disease control grading, […] (VINE)” value in test [3] is 4. The “disease control grading … (WHEAT)” value in test [4] was determined as 4. Further, the “disease control grading … (BARLEY)” value in test [5] was 4. In test [6], the “disease control grading … (PEANUT)” value stood at 4. The “disease control grading, […] (RICE)” value in test [7] is given as 4.

On to `CO/C=C(/C(=O)OC)c1cccnc1Oc1cc(F)cc(F)c1` [Compound 88], for which the “disease control grading … (APPLE)” value in test [1] was found to be 4. Moreover, the “disease control grading, PH[…] (TOMATO)” value in test [2] was determined as 4. In test [3], the “disease control grading, […] (VINE)” value amounted to 4. For the same molecule, the “disease control grading … (WHEAT)” value in test [4] worked out at 4. In test [5], the “disease control grading … (BARLEY)” value came to 4. Besides, in test [6], the “disease control grading … (PEANUT)” value is listed as 3 (trace-5% of disease on untreated plants). For the same molecule, the “disease control grading, […] (RICE)” value in test [7] is reported as 2 (6-25% of disease on untreated plants).

As to `CO/C=C(/C(=O)OC)c1cccnc1OCc1ccccc1` [Compound 66], the “disease control grading … (APPLE)” value in test [1] is 4. For the same molecule, the “disease control grading, PH[…] (TOMATO)” value in test [2] is reported as 0 (60-100% of disease on untreated plants). In test [3], the “disease control grading, […] (VINE)” value is listed as 2 (6-25% of disease on untreated plants). Moreover, the “disease control grading … (WHEAT)” value in test [4] was 0 (60-100% of disease on untreated plants). Further, the “disease control grading … (BARLEY)” value in test [5] came out at 4. For the same molecule, in test [6], the “disease control grading … (PEANUT)” value is reported as 1 (26-59% of disease on untreated plants). The “disease control grading, […] (RICE)” value in test [7] is listed as 0 (60-100% of disease on untreated plants).

Turning to `CO/C=C(/C(=O)OC)c1ncccc1Oc1ccccc1` [Compound 1, (E)-methyl 2-(3'-phenoxypyrid-2'-yl)-3-methoxyacrylate], the “disease control grading … (APPLE)” value in test [1] is listed as 3 (trace-5% of disease on untreated plants). Further, in test [2], the “disease control grading, PH[…] (TOMATO)” value was 0 (60-100% of disease on untreated plants). Moreover, the “disease control grading, […] (VINE)” value in test [3] is recorded as 0 (60-100% of disease on untreated plants). The “disease control grading … (WHEAT)” value in test [4] was 0 (60-100% of disease on untreated plants). In test [5], the “disease control grading … (BARLEY)” value is reported as 3 (trace-5% of disease on untreated plants). Also, the “disease control grading … (PEANUT)” value in test [6] is recorded as 4. In addition, the “disease control grading, […] (RICE)” value in test [7] is reported as 0 (60-100% of disease on untreated plants).

Take `CO/C=C(/C(=O)OC)c1ccccn1` [Compound 106]: the “disease control grading … (APPLE)” value in test [1] was 0 (60-100% of disease on untreated plants). Moreover, the “disease control grading, […] (VINE)” value in test [3] is recorded as 0 (60-100% of disease on untreated plants). The “disease control grading … (WHEAT)” value in test [4] is given as 0 (60-100% of disease on untreated plants). In test [5], the “disease control grading … (BARLEY)” value came out at 4. Besides, the “disease control grading … (PEANUT)” value in test [6] was 0 (60-100% of disease on untreated plants). In test [7], the “disease control grading, […] (RICE)” value is 0 (60-100% of disease on untreated plants).

As for `CO/C=C(/C(=O)OC)c1cccnc1Oc1ccc(C(F)(F)F)cc1` [Compound 21], the “disease control grading … (APPLE)” value in test [1] turned out to be 4. Moreover, the “disease control grading, PH[…] (TOMATO)” value in test [2] is listed as 3 (trace-5% of disease on untreated plants). Further, in test [3], the “disease control grading, […] (VINE)” value is given as 4. Moreover, the “disease control grading … (WHEAT)” value in test [4] is given as 4. Besides, in test [5], the “disease control grading … (BARLEY)” value was found to be 4. Further, the “disease control grading … (PEANUT)” value in test [6] was 4. In test [7], the “disease control grading, […] (RICE)” value is 0 (60-100% of disease on untreated plants).

With `CO/C=C(/C(=O)OC)c1cccnc1Oc1cccc(F)c1` [Compound 57], in test [1], the “disease control grading … (APPLE)” value is 4. Moreover, the “disease control grading, PH[…] (TOMATO)” value in test [2] is 3 (trace-5% of disease on untreated plants). For the same molecule, the “disease control grading, […] (VINE)” value in test [3] was found to be 4. Moreover, the “disease control grading … (WHEAT)” value in test [4] is 4. In addition, the “disease control grading … (BARLEY)” value in test [5] stood at 4. The “disease control grading … (PEANUT)” value in test [6] worked out at 4. Besides, in test [7], the “disease control grading, […] (RICE)” value was 4.

For the origin of these results see patent publication US4826531A (priority 1986, dated 1989).
